Experimental findings from US10632127B2, “Targeted notch pathway inhibitors” (Hoffmann-La Roche Inc., priority 2015, dated 2020) are described below.

The nature of data set [1]: Pharmacokinetic assessment in C57BL/6 healthy wild-type mice (i.p.). Format: in vivo, mouse. As to conditions: C57BL/6 mice; for concentration at 0.5 h / concentration at 4 h / concentration at 7 h: male, mouse, ip. As for the experimental part:
(§1) For PK evaluation, the compounds were administered i.p to male C57BL/6 mice in suspension (gelatine/saline 7.5%/0.62% in water) using an administration volume of 4 mL/kg. Blood samples were collected in tubes containing EDTA, plasma was separated by centrifugation and stored at −80° C. Liver and kidney samples (˜100 mg aliquots) were homogenized in three volumes of water using Precellys tissue homogenization tubes (precellys.com). 25 μL of each tissue homogenate was further diluted with 25 μL blank plasma to produce the final tissue homogenate for extraction. All samples were analyzed using protein precipitation followed by LC-MS/MS analysis. Briefly, 50 μL plasma or final tissue homogenate were mixed with 50 μL 0.5M HClO4/acetonitrile 9/1 (containing 200 ng/mL internal standard bosentan). Samples were stirred and 300 μL water was added followed by centrifugation at 5600 rpm (4° C., 10 min). 10 μL supernatant was analyzed by LC/MS analysis. Calibration standards in plasma were prepared the same way. The LC column and conditions used were: Phenomenex, Polar RP, 4 μm, 50×2.1 mm at 0.4 mL/min flow rate with a 3 min gradient from 95% solvent A to 95% solvent B (Solvent A: Water/ACN/HCOOH, 90:10:0.1+10 mM NH4 formate; Solvent B: Water/ACN/HCOOH, 10:90:0.1+10 mM NH4 formate). Mass spectrometric conditions were: Thermo TSQ Vantage with positive heated electrospray ionization in MS/MS mode. Compounds mass transitions monitored were m/z 320.7 to 119.9. PK parameters for all studies were calculated using Phoenix WinNonlin Software.
We next determined the stability, tissue distribution and cleavage rate in plasma, liver and kidney of the designed prodrugs in non-diseased mice. In the in vivo screen, the kinetics and distribution of γ-secretase inhibitor prodrugs Ac-γ-Glu-SecrI (13a), Ac-α-Glu-SecrI (15a) and H-α-Glu-SecrI (15b) were compared with the active γ-secretase inhibitor amine-SecrI (11a). After i.p administration (10 mg/kg) in C57BL/6 mice, the disappearance of the prodrugs and the formation of the active amine-SecrI (11a) were compared in plasma, liver and kidney (Table 5). First, we determined the pharmacokinetics (PK) behavior of amine-SecrI (11a) following i.p. administration (Table 5A). […] Liver and kidney exposure were much higher, with approximately 4.5-fold higher exposure in liver compared to kidney. […] The selectivity towards kidney appeared to decrease over time, probably due to fast clearance and re-equilibration of the amine-SecrI (11a). However, the high selectivity at earlier time-points assured that the total exposure over time was much higher in the kidney compared to the liver.

Data set [2] is described as follows: Distribution in plasma, liver and kidney in the aristolochic acid mouse model (repeated i.p.). Type of data set: in vivo. The note with it: for concentration at 13 h: male, C57BL/6, mouse, ip, 10 mg/kg. Here is the method:
as §1
All experiments with animals were conducted in accordance with federal and local regulation at the respective study location. Kidney injury was induced by intraperitoneal (i.p). injection of aristolochic acid (AA, Sigma-Aldrich, 1×5 mg/kg) in 10 weeks old BALB/c male mice. The γ-secretase inhibitors prodrugs were diluted in NaCl 0.9% and administered i.p., starting one day before the injection of AA (day −1) and then twice daily until day 6 evening (n=5 mice/experimental group). […] The kidneys were cut in four fragments. One fragment was immediately frozen in liquid nitrogen, one fragment was included in OCT (Tissue-Tek, VWR International, Switzerland) and frozen, one fragment was frozen at −80° C. and one fragment was fixed in 4% paraformaldehyde and included in paraffin.
To investigate potential nephroprotective effects of Notch blockade using γ-secretase inhibition and to evaluate the effects of our enzyme-targeted prodrug strategy, we used the in vivo AA mouse model of acute renal tubular damage. […]
Plasma and tissue concentrations of administered compound (Table 6A-C) and formed free γ-secretase inhibitor (8) (Table 6A) or amine-SecrI (11a) (Table 6B-C) were determined following 8-day repeated i.p. administration at 10 mg/kg b.i.d. (Table 6A) or 30 mg/kg b.i.d. […] Numbers in parentheses represent relative amounts with the exposure of 11a in kidney arbitrarily set at each time point to 100%. […] BQL=below quantifiable limit.

Where [3] appears, read: kidney, 10 mg/kg i.p., 0.5 h, read-out: Kidney concentration of administered compound.
Setting [4] is: kidney, 10 mg/kg i.p., 4 h, read-out: Kidney concentration of administered compound.
[5] abbreviates: kidney, 10 mg/kg i.p., 7 h, read-out: Kidney concentration of administered compound.
The mark [6] stands for this setting: liver, 10 mg/kg i.p., 0.5 h, read-out: Liver concentration of administered compound.
Where [7] appears, read: liver, 10 mg/kg i.p., 4 h, read-out: Liver concentration of administered compound.
[8] abbreviates: liver, 10 mg/kg i.p., 7 h, read-out: Liver concentration of administered compound.
[9] abbreviates: plasma, 10 mg/kg i.p., 0.5 h, read-out: Plasma concentration of administered compound.
The mark [10] stands for this setting: plasma, 10 mg/kg i.p., 7 h, read-out: Plasma concentration of administered compound.
[11] abbreviates: AA-exposed mice, 11a 10 mg/kg b.i.d. i.p. repeated, 13 h.
The mark [12] stands for this setting: mice, 13a 30 mg/kg b.i.d. i.p. repeated, without AA (Table 6B), 13 h.

The structures appear in SMILES notation. Read-outs that look alike come from different tables or passages of the source.

Take `C[C@H]1Oc2ccc(F)cc2N(CCOC(=O)NCCN)C(=O)[C@H]1NC(=O)[C@@](C)(O)C(=O)NCC(F)(F)C(F)(F)F.Cl` [Compound 11a, 2-((2R,3S)-7-Fluoro-3-((S)-2-hydroxy-2-methyl-3-oxo-3-(2,2,3,3,3-pentafluoropropylamino)propanamido)-2-methyl-4-oxo-3,4-dihydrobenzo[b][1,4]oxazepin-5(2H)-yl)ethyl 2-aminoethylcarbamate hydrochloride]: the “hydrolysis of the linker in 11a to the free antagonist 8” value in data set [1] (10 mg/kg i.p.) was “never observed significant amounts”. Further, the “plasma exposure, in words” value in data set [1] (10 mg/kg i.p.) was “very low plasma exposure”. Further, the “exposure in liver compared to kidney” value in data set [1] (11a 10 mg/kg i.p.) is “approximately 4.5 fold”. Besides, the “11a in kidney, relative amount (arbitrarily set to 100%)” value in data set [1] (11a 10 mg/kg i.p., 0.5 h) is recorded as “(100) %”; in data set [1] (11a 10 mg/kg i.p., 4 h), “(100) %”; in data set [1] (11a 10 mg/kg i.p., 7 h), “(100) %”; in data set [2] (setting [11]), “(100) %”. The “11a in liver, relative amount (11a in kidney = 100%)” value is “(450) %” in data set [1] (11a 10 mg/kg i.p., 0.5 h); “(250) %” in data set [1] (11a 10 mg/kg i.p., 4 h); “(290) %” in data set [1] (11a 10 mg/kg i.p., 7 h); 68% in data set [2] (setting [11]). In addition, the “formed 11a in plasma at all time-points” value in data set [1] (after 13a 10 mg/kg i.p.) is “below the limit of quantitation”. Further, the “Plasma concentration of formed 11a” value is on record as “BQL” in data set [1] (after 13a 10 mg/kg i.p., 0.5 h); “BQL” in data set [1] (after 13a 10 mg/kg i.p., 4 h); “BQL” in data set [1] (after 13a 10 mg/kg i.p., 7 h); “BQL” in data set [1] (after 15b 10 mg/kg i.p., 7 h); “BQL” in data set [2] (AA-exposed mice, 13a 30 mg/kg b.i.d. i.p. repeated, 13 h); “BQL” in data set [2] (setting [12]). Also, the concentration at 0.5 h in data set [1] (setting [3]) was 15500 ng/g; in data set [1] (setting [6]) it was 70000 ng/g; in data set [1] (setting [9]), 97.8 ng/mL. Also, the concentration at 4 h in data set [1] (setting [4]) came to 1200 ng/g; in data set [1] (setting [7]) it was 3000 ng/g; in data set [1] (plasma, 10 mg/kg i.p., 4 h, read-out: Plasma concentration of administered compound), 1.32 ng/mL. Also, the concentration at 7 h worked out at 420 ng/g in data set [1] (setting [5]), 1200 ng/g in data set [1] (setting [8]) and 2.08 ng/mL in data set [1] (setting [10]). For the same compound, the “exposure of amine-SecrI (11a) in the Ac-γ-Glu-SecrI (13a) group, in words” value in data set [2] (13a 30 mg/kg b.i.d., 12 h post administration, compared with 11a group) is “comparatively lower exposure”. The “exposure of kidney and liver with amine-SecrI (11a), in words” value in data set [2] (AA model, 11a 10 mg/kg b.i.d., 12 h post administration) was “high exposure of kidney and liver”. Also, the concentration at 13 h is 1830 ng/g in data set [2] (kidney, AA-exposed mice, 11a 10 mg/kg b.i.d. i.p. repeated, 13 h, read-out: Kidney concentration of 11a); 1250 ng/g in data set [2] (liver, AA-exposed mice, 11a 10 mg/kg b.i.d. i.p. repeated, 13 h, read-out: Liver concentration of 11a); 7.2 ng/mL in data set [2] (plasma, AA-exposed mice, 11a 10 mg/kg b.i.d. i.p. repeated, 13 h, read-out: Plasma concentration of 11a). In addition, the “Liver concentration of formed 11a” value in data set [2] (setting [12]) is reported as “BQL”.
As for `C[C@H]1Oc2ccc(F)cc2N(CCO)C(=O)[C@H]1NC(=O)[C@@](C)(O)C(=O)NCC(F)(F)C(F)(F)F` [Compound 8, N-[(6R,7S)-2-Fluoro-9-(2-hydroxy-ethyl)-6-methyl-8-oxo-6,7,8,9-tetrahydro-5-oxa-9-aza-benzocyclohepten-7-yl]-2-(S)-hydroxy-2-methyl-N′-(2,2,3,3,3-pentafluoro-propyl)-malonamide], the “Plasma concentration of formed 8” value in data set [2] (setting [11]) is recorded as “BQL”.
In the case of `CC(=O)N[C@@H](CCC(=O)O)C(=O)NCCNC(=O)OCCN1C(=O)[C@@H](NC(=O)[C@@](C)(O)C(=O)NCC(F)(F)C(F)(F)F)[C@@H](C)Oc2ccc(F)cc21` [Compound 15a, (S)-4-acetamido-5-(2-((2-((2R,3S)-7-fluoro-3-((S)-2-hydroxy-2-methyl-3-oxo-3-(2,2,3,3,3-pentafluoropropylamino)propanamido)-2-methyl-4-oxo-3,4-dihydrobenzo[b][1,4]oxazepin-5(2H)-yl)ethoxy)carbonylamino)ethylamino)-5-oxopentanoic acid], the “conversion to amine-SecrI (11a), in words” value in data set [1] (10 mg/kg i.p.) is reported as “much lower extent”. For the same compound, in data set [1] (10 mg/kg i.p., 4 h), the “Plasma concentration of administered compound” value was “BQL”. For the same compound, the values for the concentration at 0.5 h in data set [1] (setting [3]), in data set [1] (setting [6]) and in data set [1] (setting [9]) were 7540 ng/g, 7220 ng/g and 573 ng/mL, respectively. Besides, the concentration at 4 h in data set [1] (setting [4]) worked out at 81 ng/g; in data set [1] (setting [7]), 2850 ng/g. The concentration at 7 h amounted to 33.8 ng/g in data set [1] (setting [5]), 737 ng/g in data set [1] (setting [8]) and 6.29 ng/mL in data set [1] (setting [10]).
